For data set [1], the system named is NAMEC8 and SUM159, BC2.2 and BC22.1. Put plainly: In vitro measurement of IC50 of 5-FU/PAC in bexarotene-treated cells. Type of data set: cell-based, human. Particulars: bexarotene-treated vs DMSO cells. The source says:
(§1) Data were normalized to vehicle controls.

The test system of data set [2] is NAMEC8. Put plainly: Dose response to Raloxifene HCl of bexarotene-treated cells. Type of data set: cell-based, human. The settings on record: bexarotene-treated vs DMSO cells.
Text: as §1

The subject of data set [3] is SERPINE1prom-Luc reporter in NAMEC8 cells. Nature of the data set: Dual-Glo luciferase assay of SERPINE1prom-Luc reporter (FF/Ren). Type of data set: cell-based, human. The settings on record: Homo sapiens, 72 h, primary screen; NAMEC8-SERPINE1prom-Luc cells grown 3 days with compound; relative to DMSO; read-out: Avr FF/Renilla from DMSO. The source says: pGreenFire1-mCMV was cut using ClaI and SpeI and gel purified. Promoter sequences of genes Zeb1, Serpine1, CDH1, CD24, CD44, CD166 were amplified from human genomic DNA with pre-designed primers containing ClaI and SpeI restriction cut sites using AccuPrime Taq DNA Polymerase (Thermo Fisher Scientific). PCR products were then digested with restriction enzymes and gel-purified. Vector was ligated with PCR insert using Quick Ligase (Fermentas) and transformed into Stb12 competent cells. Colonies were picked and inoculated into TB media with ampicillin. Plasmids were then isolated using a plasmid miniprep kit (Qiagen) and sent for sequencing (1 stBASE Laboratories). After verifying the plasmid sequence, transfection into HEK293 cells was carried out to generate lentivirus. Transfection was carried out using FuGENE 6 (Promega). Viral supernatant was harvested at 24 h and 48 h. NAMEC8 cells were then infected twice with virus using polybrene ([…]) and checked for good transduction efficiency using Dual-Glo Luciferase System (Promega).
Stock plates of compound libraries were kindly prepared by GIS CHiP facility at 1 mM concentration in DMSO. NAMEC8-SERPINE1prom-Luc cells were seeded into 384 well plates at a density of 700 cells/well in a total volume of 50 μl, using an automated dispensing system (BioTek). 0.5 μl of compounds were then added to the wells the following day using a robotic pin transfer with a Bravo workstation (Agilent Technologies). Cells were then grown for 3 days and promoter-luciferase activity was measured using the Dual-Glo Luciferase System (Promega).
Assay was carried out according to manufacturer's instructions. To measure luciferase activity in 384 well plates, media was first removed from the plate. Firefly luciferase activity was determined by adding 30 μl Dual-Glo Luciferase substrate (Promega) to the wells and incubated for 10 min before measuring luminescence using a TECAN M1000 Pro plate reader. 15 μl Dual-Glo Stop & Glo substrate was then added to the wells, incubated for 10 min and measuring luminescence on the plate reader to determine Renilla luciferase activity. Promoter luciferase activity is then calculated by taking Firefly luciferase over Renilla luciferase.

For data set [4], the system named is SUM159. Put plainly: Tumor growth of ex vivo pre-treated SUM159 injected subcutaneously. It is filed as in vivo, NSG mice. Particulars: short-term (14 days) ex vivo treatment before transplantation. The procedure: All animal experiments were approved by the Agency for Science Technology and Research Singapore-Biological Resource Centre IACUC (Protocol number 140940). For pre-treated SUM159 and MCF7-Ras cells, 1×10^6 cells were suspended in 100 μl media containing 50% matrigel and injected subcutaneously into both flanks of female NSG mice. The NSG mice were checked for tumor by palpation once a week and tumors were harvested when they reached ˜15 mm in diameter. For treatment in NSG mice, 1×10^5 NAMEC8-Ras cells were suspended in 100 μl media containing 50% matrigel and injected subcutaneously into both flanks of NSG mice. The NSG mice were checked for tumor formation by palpation and when tumors were about 3 mm, mice were randomized into two groups: vehicle (5% DMSO in corn oil) and treatment (Bexarotene, 100 mg/kg/day oral dosing). Tumor size was measured every week using Vernier calipers and mice were sacrificed when tumors reached ˜15 mm or after ˜4 weeks of treatment. For patient-derived cells, 2×10^6 cells were injected subcutaneously per site in NSG mice.

The subject of data set [5] is NAMEC8. Nature of the data set: Lipidomic analysis (LC-MS/MS). Particulars: NAMEC8 bexarotene vs DMSO. Type of data set: cell-based, human. From the text: Lipids from cell pellets were extracted using butanol:methanol (1:1) as extraction solvent. The extraction solvent included an internal standard mixture consisting of 17:0 LPC (Lysophosphocholine), C14 LPE (Lysophosphoethanolamine), C17 Ceramide, C17 phosphocholine, C17 phosphoserine, C17:0 PG, C8-Ceramide, DMPE (1,2-dimyristoyl-glycero-3-phosphoethanolamine), DMPG (1,2-dimyristoyl-glycero-3-phospho-(1′rac-glycerol), DMPS (dimyristoyl-glycero-phosphoserine), 12:0 DG (1,2-dilauroyl-sn-glycerol), C8 GluCer (D-glucosyl-β1-1′-N-octanoyl-D-erythro-sphingosine), 24:0 SM (N-lignoceroyl-D-erythro-sphingosylphosphorylcholine), 24:1 SM (N-nervonoyl-D-erythro-sphingosylphosphorylcholine), d5-TAG 48:0. All the standards were obtained from Avanti Polar Lipids (Alabaster, AL, USA) except for d5-TAG 48:0 that was obtained from CDN isotopes. All standards were added to a final concentration of 100 ng/ml. 100 μl of the extraction solvent including the standards were added to 1×10^7 cells in a vial containing the cell pellet. The mixture was vortexed for 15 s. […]
Samples were analysed with a liquid chromatography-tandem mass spectrometry (LC-MS/MS) system (Agilent 1290 UHPLC connected to Agilent 6490 QQQ). […] Lipids were quantified in positive multiple reaction monitoring (MRM) mode. […] Data were extracted using MassHunter Quantitative Analysis software (Agilent). […]

The test system of data set [6] is SUM159. Put plainly: Cell morphology of treated SUM159. Type of data set: cell-based, human. Particulars: bexarotene, TTNPB 1 μM. The procedure: HMLE-Twist-ER cells were generated as described. For EMT-induction, 100 nM of 4-hydroxytamoxifen in ethanol was added to the culture medium every 48 h to induce Twist expression. Control cells were treated with ethanol. MCF7-Slug+Sox9 cells were generated as previously described. HMLE-Zeb1 cells were generated by infection with FUW-Zeb1 and rTTA. Doxycycline was added to the culture medium every 48 h to induce Zeb1 expression. To generate tumorigenic cells from NAMEC8, cells were infected with pWZL-Blast-Ras. MCF7, MCF7-Ras, SUM159 were maintained as previously described. All cell cultures were maintained at 37° C. with 5% CO2.

The results in this text go back to patent publication US12667546B2, “Methods for manipulating cell state transitions in cancer” (AGENCY FOR SCIENCE, TECHNOLOGY AND RESEARCH, priority 2018, dated 2026).

In the case of `C=C(c1ccc(C(=O)O)cc1)c1cc2c(cc1C)C(C)(C)CCC2(C)C` [Bexarotene], the “conferred susceptibility to 5-FU or paclitaxel” value in data set [1] was 4-6 folds. In addition, the “difference in drug sensitivity to Raloxifene hydrochloride” value in data set [2] is listed as “moderate two-fold”. The activity at 10 µM in data set [3] came to 31%. Further, the tumorigenic potential result in data set [4] was “severely crippled their tumorigenic potential for up till seven weeks post-transplantation”. Also, in data set [5], the “lipid species content (PI, PG, PC, PE, PS)” value was “dramatically increased”. For the same compound, the cell morphology result in data set [6] was “dramatic change in morphology from scattered, spindle and fibroblastic-like cells to an epithelial-like morphology”.
